Test results taken from patent US20230250066A1, “HERBICIDAL CINNOLINE DERIVATIVES” (SYNGENTA CROP PROTECTION AG, priority 2020, published 2023).

Assays:
Type in all cases: in vivo
[1] = tested on: Amaranthus retoflexus (AMARE); assay: Pre-emergence herbicidal test; details: 1000 g/ha, evaluated after 13 days
Setaria faberi (SETFA) [2] = assay: Pre-emergence herbicidal test; details: 1000 g/ha, evaluated after 13 days
[3] = tested on: Echinochloa crus-galli (ECHCG); assay: Pre-emergence herbicidal test; details: 1000 g/ha, evaluated after 13 days
[4] = tested on: Ipomoea hederacea (IPOHE); assay: Pre-emergence herbicidal test; details: 1000 g/ha, evaluated after 13 days
[5] = tested on: Abutilon theophrasti (ABUTH); assay: Pre-emergence herbicidal test; details: 1000 g/ha, evaluated after 13 days
Zea mays (ZEAMX) [6] = assay: Pre-emergence herbicidal test; details: 1000 g/ha, evaluated after 13 days
[7] = tested on: Abutilon theophrasti (ABUTH); assay: Post-emergence herbicidal test; details: 1000 g/ha unless otherwise stated, evaluated after 13 days
In short: (§1)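 Scores on a five-point scale: 5=81-100%, 4=61-80%, 3=41-60%, 2=21-40%, 1=10-20%, 0=0% damage. These are assessed 13 days after spraying at 1000 g/ha unless stated.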

[8] = tested on: Amaranthus retoflexus (AMARE); assay: Post-emergence herbicidal test; details: 1000 g/ha unless otherwise stated, evaluated after 13 days
In short: as §1

[9] = tested on: Echinochloa crus-galli (ECHCG); assay: Post-emergence herbicidal test; details: 1000 g/ha unless otherwise stated, evaluated after 13 days
In short: as §1

[10] = tested on: Ipomoea hederacea (IPOHE); assay: Post-emergence herbicidal test; details: 1000 g/ha unless otherwise stated, evaluated after 13 days
In short: as §1

Setaria faberi (SETFA) [11] = assay: Post-emergence herbicidal test; details: 1000 g/ha unless otherwise stated, evaluated after 13 days
In short: as §1

Zea mays (ZEAMX) [12] = assay: Post-emergence herbicidal test; details: 1000 g/ha unless otherwise stated, evaluated after 13 days
In short: as §1

Row | SMILES | percentage damage caused to the plant, five-point scale, AMARE [1] | percentage damage caused to the plant, five-point scale, SETFA (Setaria faberi (SETFA) [2]) | percentage damage caused to the plant, five-point scale, ECHCG [3] | percentage damage caused to the plant, five-point scale, IPOHE [4] | percentage damage caused to the plant, five-point scale, ABUTH [5] | percentage damage caused to the plant, five-point scale, ZEAMX (Zea mays (ZEAMX) [6]) | percentage damage caused to the plant, ABUTH (five-point scale) [7] | percentage damage caused to the plant, AMARE (five-point scale) [8] | percentage damage caused to the plant, ECHCG (five-point scale) [9] | percentage damage caused to the plant, IPOHE (five-point scale) [10] | percentage damage caused to the plant, SETFA (five-point scale) (Setaria faberi (SETFA) [11]) | percentage damage caused to the plant, ZEAMX (five-point scale) (Zea mays (ZEAMX) [12])
1 | COC(=O)COC(=O)c1nn(-c2ccc(OC(F)(F)F)cc2)c2cccc(S(C)(=O)=O)c2c1=O [Compound P81, (2-methoxy-2-oxo-ethyl) 5-methylsulfonyl-4-oxo-1-[4-(trifluoromethoxy)phenyl]cinnoline-3-carboxylate] | 0 (0=0%) | 5 (5=81-100%) | 4 (4=61-80%) | 0 (0=0%) | 0 (0=0%) | 0 (0=0%) | 1 (1=10-20%) | 1 (1=10-20%) | 3 (3=41-60%) | 0 (0=0%) | 4 (4=61-80%) | 1 (1=10-20%)
2 | C=CCOC(=O)c1nn(-c2ccc(OC(F)(F)F)cc2)c2cccc(S(C)(=O)=O)c2c1=O [Compound P80, allyl 5-methylsulfonyl-4-oxo-1-[4-(trifluoromethoxy)phenyl]cinnoline-3-carboxylate] | 0 (0=0%) | 5 (5=81-100%) | 4 (4=61-80%) | 0 (0=0%) | 0 (0=0%) | 1 (1=10-20%) | 1 (1=10-20%) | 0 (0=0%) | 3 (3=41-60%) | 1 (1=10-20%) | 4 (4=61-80%) | 1 (1=10-20%)
3 | CC(C)OC(=O)c1nn(-c2ccc(OC(F)(F)F)cc2)c2cccc(S(C)(=O)=O)c2c1=O [Compound P65, isopropyl 5-methylsulfonyl-4-oxo-1-[4-(trifluoromethoxy)phenyl]cinnoline-3-carboxylate] | 1 (1=10-20%) | 4 (4=61-80%) | 4 (4=61-80%) | 0 (0=0%) | 1 (1=10-20%) | 0 (0=0%) | 1 (1=10-20%) | 1 (1=10-20%) | 3 (3=41-60%) | 0 (0=0%) | 4 (4=61-80%) | 0 (0=0%)
4 | CC(C)CCOC(=O)c1nn(-c2ccc(OC(F)(F)F)cc2)c2cccc(S(C)(=O)=O)c2c1=O [Compound P88, isopentyl 5-methylsulfonyl-4-oxo-1-[4-(trifluoromethoxy)phenyl]cinnoline-3-carboxylate] | 0 (0=0%) | 5 (5=81-100%) | 4 (4=61-80%) | 0 (0=0%) | 0 (0=0%) | 0 (0=0%) | 1 (1=10-20%) | 0 (0=0%) | 3 (3=41-60%) | 0 (0=0%) | 4 (4=61-80%) | 0 (0=0%)
5 | CCCCCCCCCCCOC(=O)c1nn(-c2ccc(OC(F)(F)F)cc2)c2cccc(S(C)(=O)=O)c2c1=O [Compound P60, undecyl 5-methylsulfonyl-4-oxo-1-[4-(trifluoromethoxy)phenyl]cinnoline-3-carboxylate] | 1 (1=10-20%) | 4 (4=61-80%) | 1 (1=10-20%) | 0 (0=0%) | 1 (1=10-20%) | 1 (1=10-20%) | 1 (1=10-20%) | 1 (1=10-20%) | 1 (1=10-20%) | 1 (1=10-20%) | 1 (1=10-20%) | 1 (1=10-20%)
6 | COc1ccc2c(c1S(C)(=O)=O)c(=O)c(C(=O)O)nn2-c1ccc(OC(F)(F)F)cc1 [Compound P18, 6-methoxy-5-methylsulfonyl-4-oxo-1-[4-(trifluoromethoxy)phenyl]cinnoline-3-carboxylic acid] | 0 (0=0%) | 0 (0=0%) | 1 (1=10-20%) | 0 (0=0%) | 0 (0=0%) | 1 (1=10-20%) | 1 (1=10-20%) | 1 (1=10-20%) | 1 (1=10-20%) | 0 (0=0%) | 2 (2=21-40%) | 1 (1=10-20%)
7 | CN(C)CCOC(=O)c1nn(-c2ccc(OC(F)(F)F)cc2)c2cccc(S(C)(=O)=O)c2c1=O [Compound P76, 2-(dimethylamino)ethyl 5-methylsulfonyl-4-oxo-1-[4-(trifluoromethoxy)phenyl]cinnoline-3-carboxylate] | 0 (0=0%) | 4 (4=61-80%) | 3 (3=41-60%) | 0 (0=0%) | 1 (1=10-20%) | 0 (0=0%) | 2 (2=21-40%) | 1 (1=10-20%) | 3 (3=41-60%) | 1 (1=10-20%) | 4 (4=61-80%) | 1 (1=10-20%)
8 | CC(OC(=O)c1nn(-c2ccc(OC(F)(F)F)cc2)c2cccc(S(C)(=O)=O)c2c1=O)C1CC1 (stereo not drawn) [Compound P74, 1-cyclopropylethyl 5-methylsulfonyl-4-oxo-1-[4-(trifluoromethoxy)phenyl]cinnoline-3-carboxylate] | 0 (0=0%) | 5 (5=81-100%) | 4 (4=61-80%) | 0 (0=0%) | 0 (0=0%) | 0 (0=0%) | 1 (1=10-20%) | 1 (1=10-20%) | 4 (4=61-80%) | 0 (0=0%) | 4 (4=61-80%) | 1 (1=10-20%)
9 | CCOC(=O)c1nn(-c2ccc(OC(F)(F)F)cc2)c2cccc(SC3CC3)c2c1=O [Compound P33, ethyl 5-cyclopropylsulfanyl-4-oxo-1-[4-(trifluoromethoxy)phenyl]cinnoline-3-carboxylate] | 0 (0=0%) | 2 (2=21-40%) | 1 (1=10-20%) | 0 (0=0%) | 0 (0=0%) | 0 (0=0%) | 1 (1=10-20%) | 0 (0=0%) | 0 (0=0%) | 0 (0=0%) | 0 (0=0%) | 0 (0=0%)
